Laboratory results taken from patent US12115178B2, “Acylated active agents and methods of their use for the treatment of autoimmune disorders” (Flagship Pioneering Innovations V, Inc., priority 2018, dated 2024).

Columns and labels:
Assay type in all cases: in vitro ADME
[1] = Assay 3. In vitro Colonic Material Stability Assay; settings: colonic material slurry, anaerobic, 1 or 10 μM
Method: Assay 3. In vitro Colonic Material Stability Assay. This assay was used to assess the stability of an acylated active agent in a large intestine. All experiments were performed in an anaerobic chamber containing 90% nitrogen, 5% hydrogen and 5% carbon dioxide. Colonic material was resuspended as a slurry (15% w/v final concentration) in pre-reduced, anaerobically sterilized dilution blanks (Anaerobe Systems AS-908). The colonic material was then inoculated into 96 well plates containing YCFAC media (Anaerobe Systems AS-680) or other suitable media (6.7 μL slurry into 1 mL total media). Compounds or groups of compounds were added to each individual well to reach a final analyte concentration of 1 or 10 μM, and the material was mixed by pipetting. Sample was removed after set timepoints (0, 120, 240, 480, 1440, 2880 minutes after initiation of the assay), quenched with acetonitrile containing internal standard, and analyzed by LC/MS.

[2] = Assay 1. Stability in Simulated Gastric Fluid (SGF); settings: SGF pH 1.6 with pepsin, 1 μM, 37° C.
Summary of the method: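 Compound at 1 μM final (from 1 mM DMSO stock) incubated at 37° C in SGF: NaCl medium at pH 1.6 with FaSSIF powder and 0.1 mg/mL pepsin, prepared fresh. Aliquots taken at T0 and regular intervals, quenched with equal volume acetonitrile; LC/MS gives degradation rate.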

[3] = Assay 2. Stability in Simulated Intestinal Fluid (SIF); settings: SIF pH 6.7 with pancreatin, 1 μM, 37° C.
Summary of the method: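 Compounds at 1 µM (from 1 mM DMSO stock) were incubated at 37 °C with agitation in simulated intestinal fluid: FaSSIF in pH 6.7 phosphate buffer with pancreatin. Aliquots taken from T0 onward were quenched with acetonitrile and analyzed by LC/MS for degradation rate.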

| Compound | Assay 3 (% Remaining at 24 h) [1] | Assay 1 (SGF) (% Remaining @ 1 hour) [2] | Assay 2 (SIF) (% @ Remaining 4 hours) [3] |
| --- | --- | --- | --- |
| CCCC(=O)O[C@@H]1[C@@H](OC(=O)CCC)[C@@H](Oc2ccc(N)cc2C(=O)O)OC[C@H]1OC(=O)CCC [Compound 18, 5-amino-2-[(2R,3R,4S,5R)-3,4,5-tri(butanoyloxy)tetrahydropyran-2-yl]oxy-benzoic acid] | C (>75% of the tested compound remaining) | C (>75% of the tested compound remaining) |  |
| CCCC(=O)O[C@@H]1[C@@H](OC(=O)CCC)[C@H](Oc2ccc(N)cc2C(=O)O)OC[C@H]1OC(=O)CCC [Compound 19, 5-amino-2-[(2S,3R,4S,5R)-3,4,5-tri(butanoyloxy)tetrahydropyran-2-yl]oxy-benzoic acid] | B (25-75% of the tested compound remaining) | C (>75% of the tested compound remaining) | B (25-75% of the tested compound remaining) |
| CCCC(=O)O[C@H]1[C@@H](Oc2ccc(N)cc2C(=O)O)OC[C@@H](OC(=O)CCC)[C@H]1OC(=O)CCC [Compound 21, 5-amino-2-(((2R,3R,4R,5R)-3,4,5-tris(butyryloxy)tetrahydro-2H-pyran-2-yl)oxy)benzoic acid] | B (25-75% of the tested compound remaining) | C (>75% of the tested compound remaining) | C (>75% of the tested compound remaining) |
| CCCC(=O)O[C@@H]1[C@H](OC(=O)CCC)[C@H](C)OC(Oc2ccccc2C(=O)O)[C@H]1OC(=O)CCC (stereo partly drawn) [Compound 29, 2-(((3S,4R,5R,6S)-3,4,5-tris(butyryloxy)-6-methyltetrahydro-2H-pyran-2-yl)oxy)benzoic acid] | C (>75% of the tested compound remaining) | C (>75% of the tested compound remaining) |  |
| CCCC(=O)OC[C@H]1O[C@@H](Oc2ccc(N)cc2C(=O)O)[C@H](OC(=O)CCC)[C@@H](OC(=O)CCC)[C@@H]1OC(=O)CCC [Compound 36, 5-amino-2-(((2S,3R,4S,5R,6R)-3,4,5-tris(butyryloxy)-6-((butyryloxy)methyl)tetrahydro-2H-pyran-2-yl)oxy)benzoic acid] | C (>75% of the tested compound remaining) |  | C (>75% of the tested compound remaining) |
| CCCC(=O)O[C@@H]1[C@@H](OC(=O)CCC)[C@H](C)O[C@H](Oc2ccccc2C(=O)O)[C@@H]1OC(=O)CCC [Compound 38, 2-(((2R,3R,4R,5S,6S)-3,4,5-tris(butyryloxy)-6-methyltetrahydro-2H-pyran-2-yl)oxy)benzoic acid] | C (>75% of the tested compound remaining) |  | C (>75% of the tested compound remaining) |
| CCCC(=O)OC[C@H]1O[C@H](OC)[C@H](OC(=O)CCC)[C@@H](OC(=O)CCC)[C@H]1OC(=O)CCC [Compound 56, [(2R,3S,4S,5R,6S)-3,4,5-tris(butanoyloxy)-6-methoxyoxan-2-yl]methyl butanoate] | A (<25% of the tested compound remaining) |  | A (<25% of the tested compound remaining) |
| CCCC(=O)OC[C@H]1O[C@@H](OC)[C@H](OC(=O)CCC)[C@@H](OC(=O)CCC)[C@@H]1OC(=O)CCC [Compound 58, [(2R,3R,4S,5R,6R)-3,4,5-tris(butanoyloxy)-6-methoxyoxan-2-yl]methyl butanoate] | A (<25% of the tested compound remaining) |  | A (<25% of the tested compound remaining) |
| CCC(=O)OC[C@H]1O[C@@H](OC)[C@H](OC(=O)CC)[C@@H](OC(=O)CC)[C@@H]1OC(=O)CC [Compound 59, [(2R,3R,4S,5R,6R)-6-methoxy-3,4,5-tris(propanoyloxy)oxan-2-yl]methyl propanoate] | A (<25% of the tested compound remaining) |  | A (<25% of the tested compound remaining) |
| C[C@@H]1O[C@@H](OC(=O)CCc2c[nH]c3ccccc23)[C@@H](OC(=O)CCc2c[nH]c3ccccc23)[C@H](OC(=O)CCc2c[nH]c3ccccc23)[C@@H]1OC(=O)CCc1c[nH]c2ccccc12 [Compound 64, (2S,3S,4R,5R,6S)-3,4,5-tris({[3-(1H-indol-3-yl)propanoyl]oxy})-6-methyloxan-2-yl 3-(1H-indol-3-yl)propanoate] | A (<25% of the tested compound remaining) |  | A (<25% of the tested compound remaining) |
| CCCC(=O)O[C@@H]1[C@@H](OC(=O)CCC)[C@H](C)O[C@H](OC(=O)CCc2c[nH]c3ccccc23)[C@@H]1OC(=O)CCC [Compound 86, (2R,3R,4R,5S,6S)-4,5-bis(butanoyloxy)-2-{[3-(1H-indol-3-yl)propanoyl]oxy}-6-methyloxan-3-yl butanoate] | A (<25% of the tested compound remaining) | B (25-75% of the tested compound remaining) |  |
| CCCC(=O)O[C@H]1[C@H](OC(=O)CCC)[C@@H](OC(=O)CCc2c[nH]c3ccccc23)O[C@@H](C)[C@H]1OC(=O)CCC [Compound 87, (2R,3S,4R,5R,6S)-4,5-bis(butanoyloxy)-2-{[3-(1H-indol-3-yl)propanoyl]oxy}-6-methyloxan-3-yl butanoate] | A (<25% of the tested compound remaining) | B (25-75% of the tested compound remaining) |  |
| CCCC(=O)O[C@@H]1[C@@H](OC(=O)CCC)[C@H](OC)OC[C@H]1OC(=O)CCC [Compound 88, (2R,3R,4S,5R)-4,5-bis(butanoyloxy)-2-methoxyoxan-3-yl butanoate] | A (<25% of the tested compound remaining) |  | A (<25% of the tested compound remaining) |
| CCCC(=O)O[C@@H]1[C@@H](OC(=O)CCC)[C@H](OC(=O)CCc2c[nH]c3ccccc23)OC[C@H]1OC(=O)CCC [Compound 97, (2S,3R,4S,5R)-4,5-bis(butanoyloxy)-2-{[3-(1H-indol-3-yl)propanoyl]oxy}oxan-3-yl butanoate] | A (<25% of the tested compound remaining) | B (25-75% of the tested compound remaining) |  |
| CCC(=O)OC[C@H]1O[C@H](OC(=O)/C=C/c2c[nH]c3ccccc23)[C@H](OC(=O)CC)[C@@H](OC(=O)CC)[C@@H]1OC(=O)CC [Compound 99, (2R,3R,4S,5R,6R)-3,4,5-tris(propanoyloxy)-6-[(propanoyloxy)methyl]oxan-2-yl (2E)-3-(1H-indol-3-yl)prop-2-enoate] | A (<25% of the tested compound remaining) | B (25-75% of the tested compound remaining) |  |
| CCC(=O)O[C@@H]1[C@@H](OC(=O)CC)[C@H](OC(=O)/C=C/c2c[nH]c3ccccc23)OC[C@@H]1OC(=O)CC [Compound 100, (2S,3R,4S,5S)-3,4,5-tris(propanoyloxy)oxan-2-yl (2E)-3-(1H-indol-3-yl)prop-2-enoate] | A (<25% of the tested compound remaining) | B (25-75% of the tested compound remaining) |  |
| O=C(CCc1c[nH]c2ccccc12)O[C@H]1OC[C@@H](OC(=O)CCc2c[nH]c3ccccc23)[C@@H](OC(=O)CCc2c[nH]c3ccccc23)[C@H]1OC(=O)CCc1c[nH]c2ccccc12 [Compound 150, (2R,3R,4R,5R)-3,4,5-tris({[3-(1H-indol-3-yl)propanoyl]oxy})oxan-2-yl 3-(1H-indol-3-yl)propanoate] | A (<25% of the tested compound remaining) |  | A (<25% of the tested compound remaining) |
| CCCC(=O)O[C@H]1[C@H](OC(=O)CCC)COC(O)[C@@H]1OC(=O)CCC (stereo partly drawn) [Compound 158, (3R,4S,5R)-4,5-bis(butanoyloxy)-2-hydroxyoxan-3-yl butanoate] | A (<25% of the tested compound remaining) |  | A (<25% of the tested compound remaining) |
| CCCC(=O)O[C@@H]1[C@@H](OC(=O)CCC)[C@H](Oc2ccc(N)cc2C(=O)O)OC[C@H]1OC(=O)CCC [Compound 183, 5-amino-2-[(2S,3R,4S,5R)-3,4,5-tri(butanoyloxy)tetrahydropyran-2-yl]oxy-benzoic acid] | B (25-75% of the tested compound remaining) |  | B (25-75% of the tested compound remaining) |
| O=C(CCc1c[nH]c2ccccc12)Oc1ccc2c(c1)oc(=O)c1cc(OC(=O)CCc3c[nH]c4ccccc34)c(OC(=O)CCc3c[nH]c4ccccc34)cc12 [Compound 208, 8,9-bis({[3-(1H-indol-3-yl)propanoyl]oxy})-6-oxo-6H-benzo[c]chromen-3-yl 3-(1H-indol-3-yl)propanoate] | B (25-75% of the tested compound remaining) |  | B (25-75% of the tested compound remaining) |
